# Test results published in US20210221848A1, “POLYMYXIN DERIVATIVES AND THEIR USE IN COMBINATION THERAPY TOGETHER WITH DIFFERENT ANTIBIOTICS” (priority 2014, published 2021).
# Like-named read-outs stand apart in the source and are kept apart here.
# Assays:
# E. coli [1] = assay: MIC in the presence of a fixed concentration (2 μg/mL) of Rifampicin; type: cell-based, Escherichia coli; settings: Rifampicin 2 μg/mL, Table 5D
# K. pneumoniae [2] = assay: as above; type: cell-based, Klebsiella pneumoniae; settings: Rifampicin 2 μg/mL, Table 5D
# Procedure: (§1) The inoculum was prepared by making a direct suspension of isolated colonies (selected from an 18-24 hour Mueller-Hinton agar plate) adjusted to the 0.5 McFarland standard. […] The assays were performed in duplicate. […] In cases where the duplicate values varied by less than 2-fold, the lower of the two values is reported. If a variation of greater than 2-fold was observed, the assay was considered non-valid. Several of the compounds were subjected to multiple tests, and where this is the case, the MIC reflects the modal value obtained.
# A. baumannii [3] = assay: MIC in the presence of […] of rifampicin; type: cell-based, Acinetobacter baumannii
# Procedure: as §1
# HK-2 cell line = assay: In vitro renal cell toxicity assay (resazurin reduction)
# Procedure: MICs were determined as described herein. HK-2 cell IC50 values were determined as described herein. Values are reported relative to Polymyxin B.
# E. coli [4] = test system: E. coli
# K. pneumoniae [5] = test system: K. pneumoniae
# P. aeruginosa [6] = test system: P. aeruginosa
# A. baumannii [7] = test system: A. baumannii
# E. coli [8] = assay: MIC in 1:1 (wt:wt) combination with Rifampicin; type: cell-based, Escherichia coli; settings: 1:1 (wt:wt) with Rifampicin, total drug concentration
# Procedure: as §1
# (§2) MIC values (microgram/mL) refer to the total drug concentration (i.e. test agent plus Rifampicin).
# K. pneumoniae [9] = assay: MIC in 1:1 (wt:wt) combination with Rifampicin; type: cell-based, Klebsiella pneumoniae; settings: 1:1 (wt:wt) with Rifampicin, total drug concentration
# Procedure: as §1, §2
# P. aeruginosa [10] = assay: MIC in 1:1 (wt:wt) combination with Rifampicin; type: cell-based, Pseudomonas aeruginosa; settings: 1:1 (wt:wt) with Rifampicin, total drug concentration
# Procedure: as §1, §2
# A. baumannii [11] = assay: MIC in 1:1 (wt:wt) combination with Rifampicin; type: cell-based, Acinetobacter baumannii; settings: 1:1 (wt:wt) with Rifampicin, total drug concentration
# Procedure: as §1, §2
# [12] = test system: E. coli strains with elevated MICs to Polymyxin B; assay: MIC against strains with elevated MICs to Polymyxin B; type: cell-based, Escherichia coli; settings: Table 6D
# In short: (§3)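 Polymyxin B-resistant isolates were inoculated from 0.5 McFarland suspensions of 18-24 hour Mueller-Hinton agar colonies. Testing was done twice per compound, and results disagreeing by over 2-fold were discarded as non-valid. For compounds assayed several times, the modal MIC is given.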
# [13] = test system: K. pneumoniae strains with elevated MICs to Polymyxin B; assay: as above; type: cell-based, Klebsiella pneumoniae; settings: Table 6D
# In short: as §3
# [14] = test system: P. aeruginosa strains with elevated MICs to Polymyxin B; assay: as above; type: cell-based, Pseudomonas aeruginosa; settings: Table 6D
# In short: as §3
# [15] = test system: A. baumanii strains with elevated MICs to Polymyxin B; assay: as above; type: cell-based, Acinetobacter baumannii; settings: Table 6D
# In short: as §3
# [16] = test system: Acinetobacter baumannii NCTC 13301; settings: for Mean log10 CFU reduction vs. control: mouse lungs, A. baumannii NCTC 13301, SC at 2, 6 and 10 h post-infection, 16 h infection model
# Procedure: On Day 0, animals were infected with 0.04 mL inoculum by intranasal instillation into mouse nostrils and were kept in an upright position on a string rack for ˜10 min post-infection. […] The vehicle control group (7 mice) was treated with 0.9% saline for injection at 2, 6 and 10 h post-infection.
# Sixteen hours after infection, the mice were euthanized humanely. The lungs of each animal were harvested, homogenized and quantitatively cultured onto CLED agar for CFU determination. Decrease of the total CFU compared to control counts at 16 h post-infection was determined for each dose group.
# [17] = test system: Acinetobacter baumannii NCTC 13301; settings: mouse thigh, 16 h model
# [18] = absence of a second agent, Table 6B
substance,measurement,setting,value
3-Amino-2- benzylpropanoylpoly- myxin B nonapeptide [Example D5],"MIC in combination with Rifampicin, E. coli ATCC 25922",E. coli [1]; E. coli ATCC 25922,0.03 micrograms/mL
same,"MIC in combination with Rifampicin, E. coli NCTC 13441",E. coli [1]; E. coli NCTC 13441,0.06 micrograms/mL
same,"MIC in combination with Rifampicin, K. pneumoniae ATCC 4352",K. pneumoniae [2]; K. pneumoniae ATCC 4352,0.03 micrograms/mL
same,"MIC in combination with Rifampicin, K. pneumoniae ATCC BAA-2146",K. pneumoniae [2]; K. pneumoniae ATCC BAA-2146,0.25 micrograms/mL
same,"MIC in combination with Rifampicin, A. baumannii ATCC BAA-747","A. baumannii [3]; A. baumannii ATCC BAA-747, Table 5D",0.25 micrograms/mL
same,"MIC in combination with Rifampicin, A. baumannii NCTC 13424","A. baumannii [3]; A. baumannii NCTC 13424, Table 5D",≤0.015 micrograms/mL
same,HK-2 IC50 rel to PMB,HK-2 cell line,15.3
same,"MIC, E. coli ATCC 25922",E. coli [4]; [18],8 micrograms/mL
same,"MIC, E. coli NCTC 13441",E. coli [4]; [18],>8 micrograms/mL
same,"MIC, K. pneumoniae ATCC 4352",K. pneumoniae [5]; [18],8 micrograms/mL
same,"MIC, K. pneumoniae ATCC BAA-2146",K. pneumoniae [5]; [18],>8 micrograms/mL
same,"MIC, P. aeruginosa ATCC 27853",P. aeruginosa [6]; [18],1 micrograms/mL
same,"MIC, P. aeruginosa CCUG 59347",P. aeruginosa [6]; [18],>8 micrograms/mL
same,"MIC, A. baumannii ATCC BAA-747",A. baumannii [7]; [18],>8 micrograms/mL
same,"MIC, A. baumannii NCTC 13424",A. baumannii [7]; [18],>8 micrograms/mL
(trans-5-(isobutyl- piperidine)-3- carbonyl L-Thr-L- Dap-polymyxin B heptapeptide [Example D65],"MIC in 1:1 combination with rifampicin, E. coli 058",E. coli [8]; E. coli 058,≤0.5 microgram/mL
same,"MIC in 1:1 combination with rifampicin, E. coli 059",E. coli [8]; E. coli 059,≤0.5 microgram/mL
same,"MIC in 1:1 combination with rifampicin, E. coli 060",E. coli [8]; E. coli 060,≤0.5 microgram/mL
same,"MIC in 1:1 combination with rifampicin, E. coli ATCC 25922",E. coli [8]; E. coli ATCC 25922,≤0.5 microgram/mL
same,"MIC in 1:1 combination with rifampicin, K. pneumoniae 062",K. pneumoniae [9]; K. pneumoniae 062,1 microgram/mL
same,"MIC in 1:1 combination with rifampicin, K. pneumoniae CCUG 59348",K. pneumoniae [9]; K. pneumoniae CCUG 59348,1 microgram/mL
same,"MIC in 1:1 combination with rifampicin, P. aeruginosa 063",P. aeruginosa [10]; P. aeruginosa 063,16 microgram/mL
same,"MIC in 1:1 combination with rifampicin, P. aeruginosa 068",P. aeruginosa [10]; P. aeruginosa 068,1 microgram/mL
same,"MIC in 1:1 combination with rifampicin, A. baumannii 053",A. baumannii [11]; A. baumannii 053,≤0.5 microgram/mL
same,"MIC in 1:1 combination with rifampicin, A. baumannii 056",A. baumannii [11]; A. baumannii 056,≤0.5 microgram/mL
same,MIC E. coli 058,"[12]; strain 058, elevated MIC to Polymyxin B",1 micrograms/mL
same,MIC E. coli 059,"[12]; strain 059, elevated MIC to Polymyxin B",2 micrograms/mL
same,MIC E. coli 060,"[12]; strain 060, elevated MIC to Polymyxin B",1 micrograms/mL
same,MIC E. coli 061,"[12]; strain 061, elevated MIC to Polymyxin B",2 micrograms/mL
same,MIC K. pneumoniae 062,"[13]; strain 062, elevated MIC to Polymyxin B",32 micrograms/mL
same,MIC K. pneumoniae 063,"[13]; strain 063, elevated MIC to Polymyxin B",8 micrograms/mL
same,MIC K. pneumoniae 064,"[13]; strain 064, elevated MIC to Polymyxin B",2 micrograms/mL
same,MIC K. pneumoniae 655,"[13]; strain 655, elevated MIC to Polymyxin B",4 micrograms/mL
same,MIC P. aeruginosa 065,"[14]; strain 065, elevated MIC to Polymyxin B",2 micrograms/mL
same,MIC P. aeruginosa 066,"[14]; strain 066, elevated MIC to Polymyxin B",1 micrograms/mL
same,MIC P. aeruginosa 067,"[14]; strain 067, elevated MIC to Polymyxin B",64 micrograms/mL
same,MIC A. baumannii 053,"[15]; strain 053, elevated MIC to Polymyxin B",16 micrograms/mL
same,MIC A. baumannii 056,"[15]; strain 056, elevated MIC to Polymyxin B",1 micrograms/mL
same,MIC A. baumannii 068,"[15]; strain 068, elevated MIC to Polymyxin B",2 micrograms/mL
same,MIC A. baumannii 070,"[15]; strain 070, elevated MIC to Polymyxin B",4 micrograms/mL
same,efficacy compared with polymyxin B,"[16]; mouse lung, all doses (2.6, 8.6, 17.2 and 25.8 mg/kg free base), SC at 2, 6 and 10 h, 16 h",greater efficacy than observed with the equivalent dose of polymyxin B
same,Mean log10 CFU reduction vs. control,[16]; 2.6 mg/kg/dose free base,1.07 log10 CFU
same,Mean log10 CFU reduction vs. control,[16]; 8.6 mg/kg/dose free base,1.91 log10 CFU
same,Mean log10 CFU reduction vs. control,[16]; 17.2 mg/kg/dose free base,2.89 log10 CFU
same,Mean log10 CFU reduction vs. control,[16]; 25.8 mg/kg/dose free base,8.15 log10 CFU
same,"MIC, E. coli ATCC 25922","E. coli [4]; sole activity, Table 6C",0.03 micrograms/mL
same,"MIC, E. coli NCTC 13441","E. coli [4]; sole activity, Table 6C",0.06 micrograms/mL
same,"MIC, K. pneumoniae ATCC 4352","K. pneumoniae [5]; sole activity, Table 6C",0.03 micrograms/mL
same,"MIC, K. pneumoniae ATCC BAA-2146","K. pneumoniae [5]; sole activity, Table 6C",0.125 micrograms/mL
same,"MIC, P. aeruginosa ATCC 27853","P. aeruginosa [6]; sole activity, Table 6C",0.25 micrograms/mL
same,"MIC, P. aeruginosa CCUG 59347","P. aeruginosa [6]; sole activity, Table 6C",0.25 micrograms/mL
same,"MIC, A. baumannii ATCC BAA-747","A. baumannii [7]; sole activity, Table 6C",0.06 micrograms/mL
same,"MIC, A. baumannii NCTC 13424","A. baumannii [7]; sole activity, Table 6C",0.125 micrograms/mL
same,Mean log10 CFU reduction vs. control,"[17]; 0.215 mg/kg/dose free base SC at 2, 6 and 10 h post-infection",0.71 log10 CFU
same,Mean log10 CFU reduction vs. control,"[17]; 0.86 mg/kg/dose free base SC at 2, 6 and 10 h post-infection",2.40 log10 CFU
same,Mean log10 CFU reduction vs. control,"[17]; 2.6 mg/kg/dose free base SC at 2, 6 and 10 h post-infection",5.42 log10 CFU
same,Mean log10 CFU reduction vs. control,"[17]; 8.6 mg/kg/dose free base SC at 2, 6 and 10 h post-infection",6.05 log10 CFU
same,Mean log10 CFU reduction vs. control,"[17]; 17.2 mg/kg/dose free base SC at 2, 6 and 10 h post-infection",6.59 log10 CFU
